Results from the CheMixHub ionic liquid set.
Where “and” joins values, the source holds several entries; their conditions need not be identical. Equal values may be shown once.

Experiment: xn = mol fraction of the nth substance listed

CCOS(=O)(=O)[O-].CC[n+]1ccn(C)c1 + O=C([O-])CC(O)(CC(=O)[O-])C(=O)[O-].[K+].[K+].[K+] + O
viscosity [mPa·s], 101.3 kPa
Conditions	293.15 K	298.15 K	303.15 K	308.15 K	313.15 K
x2 = 0, x1 = 0.001795	1.073	0.96	0.845	0.751	0.679
x2 = 0, x1 = 0.002698	1.107	0.987	0.876	0.788	0.709
x2 = 0, x1 = 0.003589	1.136	1.016	0.899	0.811	0.727

CCOS(=O)(=O)[O-].CC[n+]1ccn(C)c1 + O=C([O-])c1ccccc1.[Na+] + O
viscosity [mPa·s], 101.3 kPa
Conditions	293.15 K	298.15 K	303.15 K	308.15 K	313.15 K
x2 = 0, x1 = 0.001795	1.073	0.96	0.845	0.751	0.679
x2 = 0, x1 = 0.002698	1.107	0.987	0.876	0.788	0.709
x2 = 0, x1 = 0.003589	1.136	1.016	0.899	0.811	0.727

CCOS(=O)(=O)[O-].CC[n+]1ccn(C)c1 + OCC(O)CO
100 kPa
Conditions	electrical conductivity [S/m]	viscosity [mPa·s]
298.15 K, x1 = 0.002	0.000368	–
298.15 K, x1 = 0.004	0.00065	–
298.15 K, x1 = 0.012	0.00204	–
298.15 K, x2 = 0.123	0.396	89.1
298.15 K, x2 = 0.601	0.248	91.5
298.15 K, x2 = 0.98	0.00333	–
303.15 K, x2 = 0.264	–	65
303.15 K, x2 = 0.5	–	63.7
303.15 K, x2 = 0.98	–	494
313.15 K, x1 = 0.002	0.00114	279.6
313.15 K, x1 = 0.004	0.002	274.6
313.15 K, x2 = 0.958	0.0222	199

[Cl-].c1c[nH+]c[nH]1 + OCC(O)CO
100 kPa
Conditions	viscosity [mPa·s]
313.2 K, x1 = 0.1667	306
313.2 K, x1 = 0.3333	154.5
323.2 K, x1 = 0.25	107
323.2 K, x1 = 0.3333	84
333.2 K, x1 = 0.5	100.1
343.2 K, x1 = 0.5	50.6

CCOS(=O)(=O)[O-].CC[n+]1ccn(C)c1 + OCCN(CCO)CCO
Conditions	viscosity [mPa·s]
303.15 K, 100 kPa, x2 = 0	75.7

CCOS(=O)(=O)[O-].CC[n+]1ccn(C)c1 + OCCO
100 kPa
Conditions	electrical conductivity	viscosity
293.15 K, x1 = 0.2999	–	20.52 mPa·s
293.15 K, x2 = 0.406	–	41.6 mPa·s
298.15 K, x1 = 0.001	0.0067 S/m and 0.0121 S/m	16 mPa·s and 16.9 mPa·s
298.15 K, x2 = 0	–	95.9 mPa·s
298.15 K, x2 = 0.597	0.95 S/m	21.7 mPa·s
298.15 K, x2 = 0.851	0.72 S/m	14.8 mPa·s
303.15 K, x1 = 0.001	–	13.8 mPa·s
303.15 K, x1 = 0.5992	–	28.04 mPa·s
303.15 K, x1 = 0.6994	–	37.14 mPa·s
303.15 K, x2 = 0.792	–	13 mPa·s
308.15 K, x1 = 0.1982	–	10.85 mPa·s
308.15 K, x1 = 0.2999	–	12.62 mPa·s
313.15 K, x1 = 0.001	0.0115 S/m and 0.0206 S/m	9.15 mPa·s and 9.54 mPa·s
313.15 K, x1 = 0.003	0.0362 S/m	9.48 mPa·s
313.15 K, x1 = 0.008	0.097 S/m	9.49 mPa·s
313.15 K, x1 = 0.1982	–	9.37 mPa·s
313.15 K, x2 = 0.406	1.27 S/m	20.6 mPa·s
313.15 K, x2 = 0.938	0.59 S/m	9.05 mPa·s
318.15 K, x1 = 0.1982	–	8.15 mPa·s
318.15 K, x1 = 0.4002	–	11.61 mPa·s
318.15 K, x1 = 0.8001	–	27.31 mPa·s
318.15 K, x1 = 0.8993	–	35.33 mPa·s
323.15 K, x1 = 0.1003	–	6.66 mPa·s
333.15 K, x1 = 0.1003	–	5.1 mPa·s
333.15 K, x1 = 0.1982	–	5.59 mPa·s
333.15 K, x1 = 0.5005	–	9.85 mPa·s
338.15 K, x1 = 0.5992	–	10.45 mPa·s
343.15 K, x1 = 0.5005	–	7.87 mPa·s
343.15 K, x1 = 0.5992	–	9.34 mPa·s
343.15 K, x1 = 0.8001	–	13.58 mPa·s
